Data: patent publication US11795173B1, “Substituted pyridines as PARP1 inhibitors” (Xinthera, Inc., priority 2022, dated 2023)

Columns and labels:
MDR1 = MDR1 (Homo sapiens (Human), UniProt P08183); assay: In vitro human transporter efflux, MDCKII cells expressing MDR1; format: in vitro ADME; details: for Papp A→B at 2 h, 10 μM: MDCK-MDR1, pH 7.4, apical-to-basolateral, pH7.4, read-out: MDCK-MDR1 Papp AB; for Papp A→B at 2 h, 10 μM / Papp B→A at 2 h, 10 μM: 2-hour incubation; for Papp B→A at 2 h, 10 μM: MDCK-MDR1, pH 7.4, basolateral-to-apical, pH7.4, read-out: MDCK-MDR1 Papp BA; for efflux ratio at 2 h, 10 μM: MDCK-MDR1, pH 7.4, efflux ratio Papp BA/Papp AB
MDR1, sequence (P08183 whole entry): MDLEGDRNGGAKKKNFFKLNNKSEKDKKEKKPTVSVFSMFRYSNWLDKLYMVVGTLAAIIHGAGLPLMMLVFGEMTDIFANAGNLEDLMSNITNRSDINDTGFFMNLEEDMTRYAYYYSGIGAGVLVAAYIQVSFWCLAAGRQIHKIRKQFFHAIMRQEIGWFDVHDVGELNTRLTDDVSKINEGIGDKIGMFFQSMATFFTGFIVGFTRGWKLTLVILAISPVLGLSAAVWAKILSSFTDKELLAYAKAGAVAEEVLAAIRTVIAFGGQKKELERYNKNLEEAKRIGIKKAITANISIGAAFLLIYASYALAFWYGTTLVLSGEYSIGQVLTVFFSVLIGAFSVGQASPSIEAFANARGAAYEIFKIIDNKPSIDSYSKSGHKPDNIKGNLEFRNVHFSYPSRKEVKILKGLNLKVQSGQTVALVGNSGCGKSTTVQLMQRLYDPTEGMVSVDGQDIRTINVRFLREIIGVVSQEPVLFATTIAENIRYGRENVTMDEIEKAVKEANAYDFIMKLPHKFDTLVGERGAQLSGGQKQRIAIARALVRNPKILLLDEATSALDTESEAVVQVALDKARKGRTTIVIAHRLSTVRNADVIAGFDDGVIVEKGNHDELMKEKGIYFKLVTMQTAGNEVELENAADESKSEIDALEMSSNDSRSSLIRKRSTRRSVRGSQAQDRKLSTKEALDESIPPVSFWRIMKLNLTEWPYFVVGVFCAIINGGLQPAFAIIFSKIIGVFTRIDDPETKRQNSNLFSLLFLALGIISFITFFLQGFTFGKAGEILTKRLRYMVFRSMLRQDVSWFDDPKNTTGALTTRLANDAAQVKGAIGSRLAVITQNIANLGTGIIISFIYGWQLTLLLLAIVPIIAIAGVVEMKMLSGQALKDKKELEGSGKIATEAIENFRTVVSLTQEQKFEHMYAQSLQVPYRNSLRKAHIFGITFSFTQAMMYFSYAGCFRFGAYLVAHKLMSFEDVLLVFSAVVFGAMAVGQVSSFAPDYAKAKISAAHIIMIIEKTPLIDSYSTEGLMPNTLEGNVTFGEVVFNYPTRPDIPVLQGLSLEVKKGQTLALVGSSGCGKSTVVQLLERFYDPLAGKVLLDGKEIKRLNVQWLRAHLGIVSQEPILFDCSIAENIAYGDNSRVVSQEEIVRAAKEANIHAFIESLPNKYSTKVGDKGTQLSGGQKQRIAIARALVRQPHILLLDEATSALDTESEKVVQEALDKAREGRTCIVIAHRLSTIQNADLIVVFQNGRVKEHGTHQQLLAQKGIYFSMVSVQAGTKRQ
Protocol: (§1) Madin-Darby canine kidney (MDCKII) cells expressing either MDR1 or BCRP were seeded onto Corning HTS Transwell® 96-well polycarbonate permeable (0.4 μm pore) supports at a density of 545,000 cells/cm^2. Cells were incubated for 4-8 days prior to assay, and monolayer integrity was assessed by measuring transepithelial electrical resistance (TEER). […] The final organic solvent concentration was 0.5% (v/v). Bidirectional (apical-to-basolateral and basolateral-to-apical) flux of the test and reference compounds was determined over a 2-hour incubation at 37° C. and 5% CO2 with a relative humidity of 95%. At the end of the incubation, samples from the apical and basolateral side were taken and then precipitated with acetonitrile containing internal standard. After centrifugation at 3200×g, supernatants were diluted 1:1 (v/v) with water and subjected to analysis via HPLC-MS/MS.
(§2) Apparent permeability (Papp, ×10^−6 cm/s) was calculated for all transport assays using the following equation: […]
(§3) Efflux ratio was determined by calculating the ratio of the Papp in the basolateral-to-apical direction to the Papp in the apical-to-basolateral direction using the following equation: […]

BCRP = BCRP (Homo sapiens (Human), UniProt Q9UNQ0); assay: In vitro human transporter efflux, MDCKII cells expressing BCRP; format: in vitro ADME; details: 10 μM, 2-hour incubation; for Papp A→B at 2 h, 10 μM: pH 7.4, apical-to-basolateral, pH7.4, read-out: BCRP Papp AB; for Papp B→A at 2 h, 10 μM: pH 7.4, basolateral-to-apical, pH7.4, read-out: BCRP Papp BA
BCRP, sequence (Q9UNQ0 whole entry): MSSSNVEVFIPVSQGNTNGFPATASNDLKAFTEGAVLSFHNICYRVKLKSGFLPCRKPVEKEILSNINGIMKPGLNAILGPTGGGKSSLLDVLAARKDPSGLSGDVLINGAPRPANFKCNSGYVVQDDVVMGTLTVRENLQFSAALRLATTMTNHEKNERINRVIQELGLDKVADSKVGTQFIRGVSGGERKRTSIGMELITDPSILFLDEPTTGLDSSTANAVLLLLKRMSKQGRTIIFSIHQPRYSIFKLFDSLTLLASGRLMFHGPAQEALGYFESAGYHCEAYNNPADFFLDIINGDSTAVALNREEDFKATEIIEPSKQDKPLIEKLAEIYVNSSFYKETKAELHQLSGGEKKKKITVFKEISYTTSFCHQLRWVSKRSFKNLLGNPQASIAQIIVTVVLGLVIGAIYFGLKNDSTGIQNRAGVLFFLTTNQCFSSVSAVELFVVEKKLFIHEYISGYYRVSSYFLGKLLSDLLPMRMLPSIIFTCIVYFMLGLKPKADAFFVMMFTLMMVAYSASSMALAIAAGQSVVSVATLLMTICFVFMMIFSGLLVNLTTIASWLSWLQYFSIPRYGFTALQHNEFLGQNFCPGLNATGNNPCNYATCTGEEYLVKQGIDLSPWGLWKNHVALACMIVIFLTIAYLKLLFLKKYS
Protocol: as §1, §2, §3

[1] = tested on: MDA-MB-436 (mutated BRCA1) cells; assay: Cell growth inhibition assay (CellTiter-Glo), MDA-MB-436; format: cell-based; details: Homo sapiens, MDA-MB-436, 168 h; cell viability, CellTiter Glo 2.0, 7 days
Excerpt: The objective of this study is to evaluate the effect of compound disclosed herein on cell proliferation through the cell viability assay in DLD-1 BRCA2(−/−) and parental isogenic pair and MDA-MB-436 (mutated BRCA1) cell lines. The CellTiter-Glo (CTG) based cell viability assay is designed to determine the number of viable cells in the culture because of compound effect, by quantifying ATP, which indicates the presence of metabolically active cells.
(§4) DLD-1 BRCA2(−/−) and parental isogenic pair were cultured in RPMI 1640 supplemented with 10% fetal bovine serum (FBS), and MDA-MB-436 cells were cultured in DMEM supplemented with 10% FBS. Both are culture at 37° C. with 5% CO2. Invention compounds were distributed to the 384 well plate (Corning, 3764) using Echo acoustic liquid handler to form a 1:3 serially diluted final concentration with top dose of 10 or 30 μM. The cells were seeded into the plate in the density of 50 cells/well (DLD-1 parental), 200 cells/well (DLD-1 BRCA2−/−), or 500 cells/well (MDA-MB-436). After a short spun, the cells were cultured in a well moisturized incubator at 37° C. with 5% CO2 for 7 days without disturbance. The cell viability was measured by CellTiter Glo 2.0 assay kit (Promega, G9243), and growth inhibition rate was calculated and plotted against final compound concentration, and the data were fitted in Xfit to generate IC50.

DLD-1 BRCA2(−/−) cells = assay: Cell growth inhibition assay (CellTiter-Glo), DLD-1 BRCA2(−/−); format: cell-based; details: Homo sapiens, DLD-1, 168 h; cell viability, CellTiter Glo 2.0, 7 days
Protocol: The objective of this study is to evaluate the effect of compound disclosed herein on cell proliferation through the cell viability assay in DLD-1 BRCA2(−/−) and parental isogenic pair and MDA-MB-436 (mutated BRCA1) cell lines.
as §4, with “Invention compounds were distributed to the 384 well plate (Corning, 3764) using Echo acoustic liquid handler to form a 1:3 serially diluted final concentration with top dose of 10 or 30 μM.” left out

Row | Structure (SMILES) | Papp A→B at 2 h, 10 μM (MDR1) [×10⁻⁶ cm/s] | Papp B→A at 2 h, 10 μM (MDR1) [×10⁻⁶ cm/s] | Papp A→B at 2 h, 10 μM (BCRP) [×10⁻⁶ cm/s] | Papp B→A at 2 h, 10 μM (BCRP) [×10⁻⁶ cm/s] | EC50 [1] [nM] | EC50 (DLD-1 BRCA2(−/−) cells) [nM] | efflux ratio at 2 h, 10 μM (MDR1)
1 | [2H]C([2H])([2H])NC(=O)c1ccc(N2CCN(Cc3ccc4c5c(c(=O)[nH]c4c3F)CCO5)CC2)c(F)n1 (single isomer, unassigned) [Example 22] | 15.1 | 23.3 | 28.2 | 23.6 | 4.9 | 6.6 | –
2 | [2H]C([2H])(c1ccc2c3c(c(=O)[nH]c2c1F)CCO3)N1CCN(c2ccc(C(=O)NC)nc2F)CC1 (single isomer, unassigned) [Example 24] | 16.3 | 32.9 | 22.9 | 24.4 | 3 | 3.8 | –
3 | [2H]C1([2H])Cc2c(c3ccc(CN4CCN(c5ccc(C(=O)NC)nc5F)CC4)c(F)c3[nH]c2=O)O1 (single isomer, unassigned) [Example 31, 6-fluoro-5-(4-((6-fluoro-4-oxo-2,3,4,5-tetrahydrofuro[3,2-c]quinolin-7-yl-2,2-d2)methyl)piperazin-1-yl)-N-methylpicolinamide] | – | – | – | – | 6.9 | 7.7 | –
4 | [2H]C1([2H])COc2c1c(=O)[nH]c1c(F)c(CN3CCN(c4ccc(C(=O)NC)nc4F)CC3)ccc21 (single isomer, unassigned) [Example 32, 6-fluoro-5-(4-((6-fluoro-4-oxo-2,3,4,5-tetrahydrofuro[3,2-c]quinolin-7-yl-3,3-d2)methyl)piperazin-1-yl)-N-methylpicolinamide] | – | – | – | – | 9.2 | 5.4 | –
5 | CNC(=O)c1ccc(N2CCN(Cc3ccc4c([nH]c(=O)c5ccnn54)c3F)CC2)cn1 [Example 2] | – | – | – | – | 68 | – | –
6 | O=C(NC1CC1)c1ccc(N2CCN(Cc3ccc4c([nH]c(=O)c5ccnn54)c3F)CC2)c(F)n1 [Example 3] | – | – | – | – | 4.3 | 9.1 | –
7 | CNC(=O)c1ccc(N2CCN(Cc3ccc4c([nH]c(=O)c5cc(C)nn54)c3F)CC2)c(F)n1 [Example 5] | 10.3 | 21.2 | – | – | 2.9 | 4.2 | 2.06
8 | CNC(=O)c1ccc(N2CCN(Cc3ccc4c([nH]c(=O)c5ccoc54)c3F)CC2)c(F)n1 [Example 6, 6-fluoro-5-[4-({6-fluoro-4-oxo-5H-furo[3,2-c]quinolin-7-yl}methyl)piperazin-1-yl]-N-methylpyridine-2-carboxamide] | – | – | – | – | 2.1 | 3.8 | –
9 | CNC(=O)c1ccc(N2CCN(Cc3ccc4c([nH]c(=O)n5cccc45)c3F)CC2)c(F)n1 [Example 7, 6-fluoro-5-[4-({7-fluoro-5-oxo-6H-pyrrolo[1,2-c]quinazolin-8-yl}methyl)piperazin-1-yl]-N-methylpyridine-2-carboxamide] | – | – | – | – | 1.3 | 2.1 | –
10 | O=C(NC1CC1)c1ccc(N2CCN(Cc3ccc4c5c(c(=O)[nH]c4c3F)CCO5)CC2)c(F)n1 [Example 16] | – | – | – | – | 3.1 | 5.1 | –
11 | COCCNC(=O)c1ccc(N2CCN(Cc3ccc4c([nH]c(=O)c5cc(C)nn54)c3F)CC2)c(F)n1 [Example 17] | – | – | – | – | 1.3 | 1.5 | –
12 | CNC(=O)c1ccc(N2CCN(Cc3ccc4c([nH]c(=O)c5cnn(C)c54)c3F)CC2)c(F)n1 [Example 19, 6-fluoro-5-[4-({6-fluoro-1-methyl-4-oxo-5H-pyrazolo[4,3-c]quinolin-7-yl}methyl)piperazin-1-yl]-N-methylpyridine-2-carboxamide] | – | – | – | – | 31 | 57 | –
13 | CNC(=O)c1ccc(N2CCN(Cc3ccc4c([nH]c(=O)c5cn(C)nc54)c3F)CC2)c(F)n1 [Example 20, 6-fluoro-5-[4-({6-fluoro-2-methyl-4-oxo-5H-pyrazolo[4,3-c]quinolin-7-yl}methyl)piperazin-1-yl]-N-methylpyridine-2-carboxamide] | – | – | – | – | 4 | 6.2 | –
14 | CNC(=O)c1ccc(N2CCN(Cc3ccc4c([nH]c(=O)c5c(C)cnn54)c3F)CC2)c(F)n1 [Example 23] | – | – | – | – | 2.7 | 4.7 | –
15 | CNC(=O)c1ccc(N2CCN(Cc3ccc4c([nH]c(=O)c5cc(F)nn54)c3F)CC2)c(F)n1 [Example 25, 5-[4-({2,6-difluoro-4-oxo-5H-pyrazolo[1,5-a]quinoxalin-7-yl}methyl)piperazin-1-yl]-6-fluoro-N-methylpyridine-2-carboxamide] | – | – | – | – | 1.4 | 1.8 | –
16 | CNC(=O)c1ccc(N2CCN(Cc3ccc4c5c(c(=O)[nH]c4c3F)CCO5)CC2)cn1 [Example 26] | – | – | – | – | 6 | 7.5 | –
17 | CNC(=O)c1nc(C)c(N2CCN(Cc3ccc4c5c(c(=O)[nH]c4c3F)CCO5)CC2)cc1F [Example 27] | – | – | – | – | 14 | 21 | –
18 | CNC(=O)c1ccc(N2CCN(Cc3ccc4c5c(c(=O)[nH]c4c3F)CCO5)CC2)c(C)n1 [Example 29] | – | – | – | – | 2.1 | 4.3 | –

Compounds with a lower EC50 [1], results first:

Row | Papp A→B at 2 h, 10 μM (MDR1) [×10⁻⁶ cm/s] | Papp B→A at 2 h, 10 μM (MDR1) [×10⁻⁶ cm/s] | Papp A→B at 2 h, 10 μM (BCRP) [×10⁻⁶ cm/s] | Papp B→A at 2 h, 10 μM (BCRP) [×10⁻⁶ cm/s] | EC50 [1] [nM] | EC50 (DLD-1 BRCA2(−/−) cells) [nM] | efflux ratio at 2 h, 10 μM (MDR1) | Structure (SMILES)
19 | 16.3 | 20.6 | – | – | 1.1 | 1 | – | CNC(=O)c1ccc(N2CCN(Cc3ccc4c5c(c(=O)[nH]c4c3F)CCC5)CC2)c(F)n1 [Comp. Ex. 4, reference compound]
20 | 4.4 | 8.6 | – | – | 1.2 | 2.1 | 1.96 | Cc1cc2c(=O)[nH]c3c(F)c(CN4CCN(c5ccc(C(=O)NC6CC6)nc5F)CC4)ccc3n2n1 [Example 4]
21 | – | – | – | – | 0.94 | 1.8 | – | CNC(=O)c1ccc(N2CCN(Cc3ccc4c([nH]c(=O)c5c(Cl)cnn54)c3F)CC2)c(F)n1 [Example 8]
22 | – | – | – | – | 0.3 | 0.64 | – | CNC(=O)c1ccc(N2CCN(Cc3ccc4c([nH]c(=O)c5cccn54)c3F)CC2)c(F)n1 [Example 10, 6-fluoro-5-[4-({6-fluoro-4-oxo-5H-pyrrolo[1,2-a]quinoxalin-7-yl}methyl)piperazin-1-yl]-N-methylpyridine-2-carboxamide]
23 | – | – | – | – | 0.86 | 1.1 | – | O=C(NCC(F)F)c1ccc(N2CCN(Cc3ccc4c([nH]c(=O)c5ccoc54)c3F)CC2)c(F)n1 [Example 11]
24 | – | – | – | – | 0.9 | 1.6 | – | O=C(NCC(F)F)c1ccc(N2CCN(Cc3ccc4c([nH]c(=O)c5ccnn54)c3F)CC2)c(F)n1 [Example 12]
25 | – | – | – | – | 1.2 | 1.4 | – | Cc1cc2c(=O)[nH]c3c(F)c(CN4CCN(c5ccc(C(=O)NCC(F)F)nc5F)CC4)ccc3n2n1 [Example 13]
26 | – | – | – | – | 0.68 | 1.2 | – | O=C(NC1CC1)c1ccc(N2CCN(Cc3ccc4c([nH]c(=O)c5ccoc54)c3F)CC2)c(F)n1 [Example 14]
27 | – | – | – | – | 0.75 | 1.9 | – | O=C(NCC(F)F)c1ccc(N2CCN(Cc3ccc4c5c(c(=O)[nH]c4c3F)CCO5)CC2)c(F)n1 [Example 15]
28 | – | – | – | – | 0.66 | 1.3 | – | Cc1cc2c(=O)[nH]c3c(F)c(CN4CCN(c5ccc(C(=O)NC6COC6)nc5F)CC4)ccc3n2n1 [Example 21]
29 | – | – | – | – | 0.57 | 0.84 | – | CNC(=O)c1ccc(N2CCN(Cc3ccc4c([nH]c(=O)c5c(F)cnn54)c3F)CC2)c(F)n1 [Example 28, 5-[4-({3,6-difluoro-4-oxo-5H-pyrazolo[1,5-a]quinoxalin-7-yl}methyl)piperazin-1-yl]-6-fluoro-N-methylpyridine-2-carboxamide]
